Laboratory results as given in patent US20050153872A1, “Methods and compositions for the treatment of infection” (priority 2004, published 2005).
In brackets after ≈: the same amount, converted by molar mass.

Tests used:
[1] = test system: S. aureus strain ATCC BAA-42 MRSA; details: all agents 5 μg/ml
[2] = test system: Staphylococcus epidermidis MRSE strain (25); assay: In vitro antibacterial activity (MIC), clinical isolates; type: cell-based; details: Staphylococcus epidermidis, MRSE
Protocol: (§1) The following experiments were performed by Lab. of Pharmacology, National Sichuan antibiotic industril institute, Chengdu, Sichuan.
(§2) The following agents were used to test the in vitro activity of Ph-SA:
(§3) All the bacterial strains used in the experiments were clinical isolates collected from Sichuan and Beijing in 2002 and identified by West China Hospital, Sichuan University and Chongqing University of Medical Sciences with API system. The following strains were used in the experiments detailed below: Staphylococcus aureus 168 strains (MRSA 80 strains and MSSA 88 strains) Staphylococcus epidermidis 46 strains (MRSE 25 strains and MSSE 21 strains), Enterococcus 20 strains, and Acenetobactor 20 strains. Staphylococcus aureus ATCC25923, 29213 and BAA-42 were used as control strains. Bacterial strains were contacted with one of the above described compounds and MIC50, MIC90 and MICScope were determined.

[3] = test system: Staphylococcus aureus MRSA strain (80); assay: as above; type: cell-based; details: Staphylococcus aureus, MRSA
Protocol: as §1, §2, §3

Acenetobactor (20) = assay: as above; type: cell-based
Protocol: as §1, §2, §3

Enterococcus (20) = assay: as above; type: cell-based; details: 20 Enterococcus clinical isolates
Protocol: as §1, §2, §3

[4] = test system: Staphylococcus epidermidis MSSE strain (21); assay: as above; type: cell-based; details: Staphylococcus epidermidis, 21 MSSE clinical isolates
Protocol: as §1, §2, §3

[5] = test system: Staphylococcus aureus MSSA strain (88); assay: as above; type: cell-based; details: Staphylococcus aureus, 88 MSSA clinical isolates
Protocol: as §1, §2, §3

[6] = test system: ATCC 700671 PRSP (S. pneumoniae); assay: In vivo protection effects of Ph-SP; design: species or system mice; details: 5 animals
Protocol: To assess the in vivo effect of Ph-SP, mice were injected with ATCC 700671 PRSP intraperitoneally, followed by intravenous injections of PH-SP or controls.
One hour after administration of the fatal dose of ATCC 700671 PRSP (10^5 CFU/ml), each mouse was injected through the tail vein with test agents at three dosages as described in Table 4.

Cc1onc(-c2ccccc2)c1C(=O)N[C@@H]1C(=O)N2[C@@H]1SC(C)(C)[C@@H]2C(=O)O [Oxacillin, oxacillin]
inhibition of growth [1]: did not inhibit the growth
MIC50 [2]: 64 µg/mL (≈ 159 µM)
MIC90 [2]: > 128 µg/mL
MIC50 [3]: > 128 µg/mL
MIC90 [3]: > 128 µg/mL
MIC ([3]; read-out: MIC Scope): 0.5 to 128 µg/mL (≈ 1.25 to 319 µM)
MIC50 (Acenetobactor (20)): > 128 µg/mL
MIC90 (Acenetobactor (20)): > 128 µg/mL
MIC (Acenetobactor (20); read-out: MIC Scope): > 128 µg/mL
MIC50 (Enterococcus (20); read-out: MIC50): 16 µg/mL (≈ 39.9 µM)
MIC90 (Enterococcus (20); read-out: MIC90): > 128 µg/mL
MIC [4]: 0.015 to 0.25 µg/mL (≈ 0.0374 to 0.623 µM)
MIC50 ([4]; read-out: MIC50): 0.03 µg/mL (≈ 0.0747 µM)
MIC90 ([4]; read-out: MIC90): 0.25 µg/mL (≈ 0.623 µM)
MIC50 ([5]; read-out: MIC50): 0.125 µg/mL (≈ 0.311 µM)
MIC90 ([5]; read-out: MIC90): 0.125 µg/mL (≈ 0.311 µM)
MIC ([5]; read-out: MIC Scope): 0.015 to 0.25 µg/mL (≈ 0.0374 to 0.623 µM)

cephalomycin
Death distribution in hours 24 h ([6]; 5 mg/kg tail vein): 3
Death distribution in hours 48 h ([6]; 5 mg/kg tail vein): 1
Death distribution in hours 72 h ([6]; 5 mg/kg tail vein): 0
Death distribution in hours 96 h ([6]; 5 mg/kg tail vein): 0
Death distribution in hours 120 h ([6]; 5 mg/kg tail vein): 0
Death distribution in hours 144 h ([6]; 5 mg/kg tail vein): 0
Death distribution in hours 168 h ([6]; 5 mg/kg tail vein): 0
Number of Death ([6]; 5 mg/kg tail vein): 4
Death distribution in hours 24 h ([6]; 10 mg/kg tail vein): 2
Death distribution in hours 48 h ([6]; 10 mg/kg tail vein): 1
Death distribution in hours 72 h ([6]; 10 mg/kg tail vein): 0
Death distribution in hours 96 h ([6]; 10 mg/kg tail vein): 0
Death distribution in hours 120 h ([6]; 10 mg/kg tail vein): 0
Death distribution in hours 144 h ([6]; 10 mg/kg tail vein): 0
Death distribution in hours 168 h ([6]; 10 mg/kg tail vein): 0
Number of Death ([6]; 10 mg/kg tail vein): 3

B1: Ph-SAR1: the AgrDI pheromone of S. aureus linked to the N-terminus of Colicin Ia (protein)
chain: YSTCDFIMSDPVRITNPGAESLGYDSDGHEIMAVDIYVNPPRVDVFHGTPPAWSSFGNKTIWGGNEWVDDSPTRSDIEKRDKEITAYKNTLSAQQKENENKRTEAGKRLSAAIAAREKDENTLKTLRAGNADAADITRQEFRLLQAELREYGFRTEIAGYDALRLHTESRMLFADADSLRISPREARSLIEQAEKRQKDAQNADKKAADMLAEYERRKGILDTRLSELEKNGGAALAVLDAQQARLLGQQTRNDRAISEARNKLSSVTESLNTARNALTRAEQQLTQQKNTPDGKTIVSPEKFPGRSSTNHSIVVSGDPRFAGTIKITTSAVIDNRANLNYLLSHSGLDYKRNILNDRNPVVTEDVEGDKKIYNAEVAEWDKLRQRLLDARNKITSAESAVNSARNNLSARTNEQKHANDALNALLKEKENIRNQLSGINQKIAEEKRKQDELKATKDAINFTTEFLKSVSEKYGAKAEQLAREMAGQAKGKKIRNVEEALKTYEKYRADINKKINAKDRAAIAAALESVKLSDISSNLNRFSRGLGYAGKFTSLADWITEFGKAVRTENWRPLFVKTETIIAGNAATALVALVFSILTGSALGIIGYGLLMAVTGALIDESLVEKANKFWGI
modifications: Pheromone peptide from Staphylococcus aureus AgrDI attached to Colicin Ia
inhibition of growth [1]: did not inhibit the growth

B2: Ph-SA2: Colicin Ia linked to the AgrDII pheromone of S. aureus (protein)
chain: SDPVRITNPGAESLGYDSDGHEIMAVDIYVNPPRVDVFHGTPPAWSSFGNKTIWGGNEWVDDSPTRSDIEKRDKEITAYKNTLSAQQKENENKRTEAGKRLSAAIAAREKDENTLKTLRAGNADAADITRQEFRLLQAELREYGFRTEIAGYDALRLHTESRMLFADADSLRISPREARSLIEQAEKRQKDAQNADKKAADMLAEYERRKGILDTRLSELEKNGGAALAVLDAQQARLLGQQTRNDRAISEARNKLSSVTESLNTARNALTRAEQQLTQQKNTPDGKTIVSPEKFPGRSSTNHSIVVSGDPRFAGTIKITTSAVIDNRANLNYLLSHSGLDYKRNILNDRNPVVTEDVEGDKKIYNAEVAEWDKLRQRLLDARNKITSAESAVNSARNNLSARTNEQKHANDALNALLKEKENIRNQLSGINQKIAEEKRKQDELKATKDAINFTTEFLKSVSEKYGAKAEQLAREMAGQAKGKKIRNVEEALKTYEKYRADINKKINAKDRAAIAAALESVKLSDISSNLNRFSRGLGYAGKFTSLADWITEFGKAVRTENWRPLFVKTETIIAGNAATALVALVFSILTGSALGIIGYGLLMAVTGALIDESLVEKANKFWGIGVNACSSLF
modifications: Colicin attached to Pheromone peptide encoding Staphylococcus aureus AgrDII
inhibition of growth [1]: some inhibition effects

B3: Ph-SE: Colicin Ia linked to the pheromone of S. epidermidis (protein)
chain: SDPVARGITNPGAESLGYDSDGHEIMAVASPIYVASNPPRVASPVFHGTPPAWSSFGNKTIWGGNEWVASPDSPTRSDIEKRDKEITAYKNTLSAQQKENENKRTEAGKRLSAAIAAREKDENTLKTLRAGNADAADITRQEFRLLQAELREYGFRTEIAGYDALRLHTESRMLFADADSLRISPREARSLIEQAEKRQKDAQNADKKAADMLAEYERRKGILDTRLSELEKNGGAALAVLDAQQARLLGQQTRNDRAISEARNKLSSVTESLNTARNALTRAEQQLTQQKNTPDGKTIVSPEKFPGRSSTNHSIVVSGDPRFAGTIKITTSAVIDNRANLNYLLSHSGLDYKRNILNDRNPVVTEDVEGDKKIYNAEVALAEWDKLRQRLLDARNKITSAESAVASNSARNNLSARTNEQKHANDALNALLKEKENIRNQLSGINQKIAEEKRKQDELKATKDAINFTTEFLKSVSEKYGAKAEQLAREMAGQAKGKKIRNVEEALKTYEKYRADINKKINAKDRAAIAAALESVKLSDISSNLNRFSRGLGYAGKFTSLADWITEFGKAVARGTENWRPLFVKTETIIAGNAATALVALALVFSILTGSALGIIGYGLLMAVTGALIDESLVEKANKFWGIDSVCASYF
modifications: Colicin Ia attached to Pheromone peptide from Staphylococcus epidermidis
inhibition of growth [1]: better effects

B4: Ph-SA4: Colicin Ia linked to the AgrDIV pheromone of S. aureus (protein)
chain: SDPVRITNPGAESLGYDSDGHEIMAVDIYVNPPRVDVFHGTPPAWSSFGNKTIWGGNEWVDDSPTRSDIEKRDKEITAYKNTLSAQQKENENKRTEAGKRLSAAIAAREKDENTLKTLRAGNADAADITRQEFRLLQAELREYGFRTEIAGYDALRLHTESRMLFADADSLRISPREARSLIEQAEKRQKDAQNADKKAADMLAEYERRKGILDTRLSELEKNGGAALAVLDAQQARLLGQQTRNDRAISEARNKLSSVTESLNTARNALTRAEQQLTQQKNTPDGKTIVSPEKFPGRSSTNHSIVVSGDPRFAGTIKITTSAVIDNRANLNYLLSHSGLDYKRNILNDRNPVVTEDVEGDKKIYNAEVAEWDKLRQRLLDARNKITSAESAVNSARNNLSARTNEQKHANDALNALLKEKENIRNQLSGINQKIAEEKRKQDELKATKDAINFTTEFLKSVSEKYGAKAEQLAREMAGQAKGKKIRNVEEALKTYEKYRADINKKINAKDRAAIAAALESVKLSDISSNLNRFSRGLGYAGKFTSLADWITEFGKAVRTENWRPLFVKTETIIAGNAATALVALVFSILTGSALGIIGYGLLMAVTGALIDESLVEKANKFWGIYSTCYFIM
modifications: Colicin attached to Pheromone peptide encoding Staphylococcus aureus AgrDIV
inhibition of growth [1]: best inhibitory effects

B5: Ph-SA3: Colicin Ia linked to the AgrDIII pheromone of S. aureus (protein)
chain: SDPVRITNPGAESLGYDSDGHEIMAVDIYVNPPRVDVFHGTPPAWSSFGNKTIWGGNEWVDDSPTRSDIEKRDKEITAYKNTLSAQQKENENKRTEAGKRLSAAIAAREKDENTLKTLRAGNADAADITRQEFRLLQAELREYGFRTEIAGYDALRLHTESRMLFADADSLRISPREARSLIEQAEKRQKDAQNADKKAADMLAEYERRKGILDTRLSELEKNGGAALAVLDAQQARLLGQQTRNDRAISEARNKLSSVTESLNTARNALTRAEQQLTQQKNTPDGKTIVSPEKFPGRSSTNHSIVVSGDPRFAGTIKITTSAVIDNRANLNYLLSHSGLDYKRNILNDRNPVVTEDVEGDKKIYNAEVAEWDKLRQRLLDARNKITSAESAVNSARNNLSARTNEQKHANDALNALLKEKENIRNQLSGINQKIAEEKRKQDELKATKDAINFTTEFLKSVSEKYGAKAEQLAREMAGQAKGKKIRNVEEALKTYEKYRADINKKINAKDRAAIAAALESVKLSDISSNLNRFSRGLGYAGKFTSLADWITEFGKAVRTENWRPLFVKTETIIAGNAATALVALVFSILTGSALGIIGYGLLMAVTGALIDESLVEKANKFWGIYINCDFLL
modifications: Colicin attached to Pheromone peptide encoding Staphylococcus aureus AgrDIII
inhibition of growth [1]: some inhibition effects
